Drawing on patent US9375004B2 (Bayer Intellectual Property GmbH, priority 2010, dated 2016), this text covers Efficacy, logP and protection for 17 compounds.

The test system of series [1] is Fusarium nivale (var. majus). In words: Fusarium nivale (var. majus)-test (wheat)/preventive. The following applies: preventive, evaluated 5 days after inoculation.
Method: Fusarium Nivale (Var. Majus)-Test (Wheat)/Preventive
Solvent: 49 parts by weight of N,N-dimethylacetamide
(§1) Emulsifier: 1 part by weight of alkylaryl polyglycol ether
After the spray coating has been dried, the plants are slightly injured by using a sandblast and afterwards they are sprayed with a conidia suspension of Fusarium nivale (var. majus).
The plants are placed in the greenhouse under a translucent incubation cabinet at a temperature of approximately 10° C. and a relative atmospheric humidity of approximately 100%.
The test is evaluated 5 days after the inoculation.
The next series deals with Puccinia triticina. Kind of series: Puccinia triticina-test (wheat)/preventive. The format is in vivo. Particulars: 500 ppm, preventive, evaluated 8 days after inoculation.
The subject of a further series is Uromyces appendiculatus. Particulars: 100 ppm, beans, preventive, evaluated 10 days after inoculation.
Another series deals with Pyrenophora teres. In words: Pyrenophora teres-test (barley)/preventive. The series is classed as in vivo. Particulars: 500 ppm, preventive, evaluated 8 days after inoculation.
Another series has as its system Cochliobolus miyabeanus. In words: Cochliobolus test (rice)/protective. The format is in vivo. Particulars: 250 ppm, protective, evaluated 4 days after inoculation.
Series [2] can be described thus: logP by HPLC on reversed-phase column (EEC Directive 79/831 Annex V.A8). Particulars: HPLC on reversed-phase column (C 18), EEC Directive 79/831 Annex V.A8.
The next series concerns Rhizoctonia solani. Kind of series: Rhizoctonia test (rice)/protective. The format is in vivo. The following applies: 250 ppm, protective, evaluated 4 days after inoculation. As for the experimental part:
Rhizoctonia Test (Rice)/Protective
Solvent: 28.5 parts by weight of acetone
Emulsifier: 1.5 part by weight of alkylaryl polyglycol ether
1 day after the treatment, the plants are inoculated with hyphae of Rhizoctonia solani.
Evaluation is carried out 4 days after the inoculation.

The test system of the next series is Septoria tritici. In words: Septoria tritici-test (wheat)/preventive. The format is in vivo. The following applies: 500 ppm, preventive, evaluated 21 days after inoculation.
A further series deals with Botrytis cinerea. Kind of series: Botrytis test (beans)/preventive. Particulars: 100 ppm, preventive, lesion size 2 days after inoculation.
The next series relates to Venturia inaequalis. Kind of series: Venturia test (apples)/preventive. Particulars: 100 ppm, preventive, evaluated 10 days after inoculation.
In the next series the test system is Pyricularia oryzae. The series is classed as in vivo. The following applies: in vivo.
The test system of the next series is Phakopsora pachyrhizi. Kind of series: Phakopsora test (soybeans)/protective. The series is classed as in vivo. The following applies: 250 ppm, protective, evaluated 11 days after inoculation.
The test system of the next series is Sphaerotheca fuliginea. Kind of series: Sphaerotheca test (cucumber)/preventive. Particulars: 500 ppm, preventive, evaluated 7 days after inoculation. The series is classed as in vivo.
In another series the test system is Alternaria solani. In words: Alternaria test (tomato)/preventive. The series is classed as in vivo. Particulars: 500 ppm, preventive, evaluated 7 days after inoculation.

“And” between values parts separate entries of the source, which are not always exact repeats. Equal values may be shown once.

Method for Botrytis cinerea: Botrytis Test (Beans)/Preventive
(§2) Solvent: 24.5 parts by weight of acetone • 24.5 parts by weight of N,N-dimethylformamide
as §1
After the spray coating has dried on, 2 small pieces of agar covered with growth of Botrytis cinerea are placed on each leaf. The inoculated plants are placed in a darkened chamber at 20° C. and a relative atmospheric humidity of 100%.
2 days after the inoculation, the size of the lesions on the leaves is evaluated.
Method for Venturia inaequalis: Venturia Test (Apples)/Preventive
as §2, §1
After the spray coating has dried on, the plants are inoculated with an aqueous conidia suspension of the causal agent of apple scab (Venturia inaequalis) and then remain for 1 day in an incubation cabinet at approximately 20° C. and a relative atmospheric humidity of 100%.
The plants are then placed in a greenhouse at approximately 21° C. and a relative atmospheric humidity of approximately 90%.
The test is evaluated 10 days after the inoculation.

In the case of `Cn1nc(C(F)F)c(C(=O)Nc2ccccc2-c2ccc(Cl)c(F)c2)c1Cl` [Example 99], the Efficacy is reported as 100% in series [1] (500 ppm); 100% in the series on Puccinia triticina; 100% in the series on Uromyces appendiculatus; 100% with Pyrenophora teres; 95% in the series with Cochliobolus miyabeanus; 100% with Rhizoctonia solani. Besides, the figures for the Efficacy in the series on Septoria tritici, in the series on Botrytis cinerea and in the series on Venturia inaequalis were 86%, 97% and 100%, respectively. For the same compound, the logP (commonly the decadic logarithm of the partition coefficient of the neutral form, usually between octanol and water) in series [2] was determined as 3.71.
For the compound `Cn1nc(C(F)F)c(C(=O)Nc2ccccc2C2CC2C2CC2)c1Cl` (single isomer, unassigned) [Example 47], the Efficacy was 86% in series [1] (500 ppm, listed as 47 from this invention); 100% in the series with Puccinia triticina; 100% in the series with Uromyces appendiculatus; 100% in the series with Pyrenophora teres; 100% in the series on Rhizoctonia solani; 90% with Pyricularia oryzae. Besides, the Efficacy is 98% in the series on Phakopsora pachyrhizi and 100% in the series with Venturia inaequalis. The same compound returned a logP in series [2] of 3.76.
For `Cn1nc(C(F)F)c(C(=O)Nc2ccccc2CCC(C)(C)C)c1F` [Example 13], the Efficacy in [1] (500 ppm) stood at 100%; in the series on Puccinia triticina it was 100%; with Uromyces appendiculatus, 100%; in the series on Pyrenophora teres it was 100%; in the series on Cochliobolus miyabeanus, 85%; with Rhizoctonia solani, 100%. The Efficacy in the series on Sphaerotheca fuliginea turned out to be 100%; in the series on Alternaria solani, 100%; in the series on Pyricularia oryzae it was 97%; with Phakopsora pachyrhizi it was 98%; in the series on Septoria tritici, 100%; in the series on Botrytis cinerea, 94%. For the same compound, in the series with Venturia inaequalis, the Efficacy was determined as 100%. In series [2], this compound had a logP of 3.83.
As for `Cn1nc(C(F)F)c(C(=O)Nc2ccccc2C2CC2C2CC2)c1F` (stereo not drawn) [Example 46], the Efficacy with Puccinia triticina came to 100%; in the series with Uromyces appendiculatus it was 100%; with Pyrenophora teres it was 100%; in the series with Rhizoctonia solani, 97%; with Sphaerotheca fuliginea it was 94%; with Alternaria solani, 100%. Also, the Efficacy with Pyricularia oryzae is given as 96%; in the series with Phakopsora pachyrhizi, 85%; with Septoria tritici it was 89%; in the series on Botrytis cinerea, 99%; in the series on Venturia inaequalis, 100%. This compound displayed a logP in series [2] of 3.67.
Take `Cn1nc(C(F)F)c(C(=O)Nc2ccc(F)cc2-c2ccc(Cl)cc2)c1F` [Example 84]: the Efficacy in the series on Uromyces appendiculatus amounted to 99%; with Alternaria solani it was 94%; in the series on Phakopsora pachyrhizi it was 80%; in the series with Botrytis cinerea, 99%; in the series on Venturia inaequalis it was 100%. Besides, the log partition coefficient (logP) in series [2] worked out at 3.46.
With `Cn1nc(C(F)F)c(C(=O)Nc2ccccc2-c2ccc(C(F)(F)F)c(F)c2)c1Cl` [Example 148], the Efficacy in series [1] (500 ppm) was 86%; in the series with Puccinia triticina, 100%; with Uromyces appendiculatus it was 100%; in the series on Pyrenophora teres, 100%; in the series with Cochliobolus miyabeanus it was 95%; in the series with Rhizoctonia solani, 100%. The Efficacy with Pyricularia oryzae is reported as 80%; in the series on Phakopsora pachyrhizi it was 98%; with Septoria tritici, 100%; in the series on Botrytis cinerea it was 100%; in the series with Venturia inaequalis it was 100%. This compound came in with a logP in series [2] of 3.77.
Turning to `Cn1nc(C(F)F)c(C(=O)Nc2ccccc2OC(F)(F)C(F)C(F)(F)F)c1Cl` (stereo not drawn) [Example 31], the Efficacy with Cochliobolus miyabeanus was 80%; with Rhizoctonia solani, 100%; in the series on Sphaerotheca fuliginea, 91%; in the series with Alternaria solani, 100%; with Pyricularia oryzae, 98%. The logP in series [2] stood at 3.71.
Consider `Cn1nc(C(F)F)c(C(=O)Nc2ccccc2C2CC3CCC2C3)c1F` (stereo not drawn) [Example 51], for which the Efficacy is given as 71% with Puccinia triticina; 100% in the series with Uromyces appendiculatus; 100% in the series on Pyrenophora teres; 96% with Sphaerotheca fuliginea; 95% with Alternaria solani; 93% in the series on Phakopsora pachyrhizi. Moreover, the Efficacy in the series with Septoria tritici was 80%; with Botrytis cinerea it was 100%; in the series with Venturia inaequalis, 100%. Further, the logP in series [2] amounted to 3.78.
Turning to `Cn1nc(C(F)F)c(C(=O)Nc2ccccc2C2CC2C2CC2)c1Cl` (single isomer, unassigned) [Example 48], the Efficacy in [1] (500 ppm, listed as 48 from this invention) is given as 86%; in the series on Puccinia triticina it was 100%; with Uromyces appendiculatus it was 100%; with Pyrenophora teres it was 86%; in the series with Rhizoctonia solani it was 98%; in the series on Phakopsora pachyrhizi, 99%. The compound also gave an Efficacy in the series on Venturia inaequalis of 100%. Moreover, the logP in series [2] is 3.85.
On to `CC1CC(C)(C)c2cccc(NC(=O)c3c(C(F)F)nn(C)c3F)c21` (racemic) [Example 64], for which the Efficacy in series [1] (500 ppm) came out at 75%; in the series with Puccinia triticina, 100%; in the series on Uromyces appendiculatus, 100%; in the series on Pyrenophora teres, 100%; with Sphaerotheca fuliginea it was 100%; in the series on Alternaria solani it was 95%. In addition, the Efficacy with Phakopsora pachyrhizi was 97%; with Septoria tritici it was 100%; with Botrytis cinerea, 95%; in the series on Venturia inaequalis it was 99%.
With `CC(C)C1C2CCC1c1c(NC(=O)c3c(C(F)F)nn(C)c3Cl)cccc12` (stereo not drawn) [Example 67], the Efficacy turned out to be 71% in [1] (250 ppm); 100% in series [1] (500 ppm); 100% in the series on Puccinia triticina; 100% with Uromyces appendiculatus; 100% with Pyrenophora teres; 90% in the series with Cochliobolus miyabeanus. In addition, the Efficacy turned out to be 100% in the series on Rhizoctonia solani; 96% in the series on Pyricularia oryzae; 100% with Septoria tritici; 99% with Botrytis cinerea; 100% with Venturia inaequalis. Also, the logP in series [2] is 4.55.
Turning to `CC(CC(C)(C)C)c1ccccc1NC(=O)c1c(C(F)F)nn(C)c1F` (stereo not drawn) [Example 21], the Efficacy in the series on Puccinia triticina is 100%; in the series on Uromyces appendiculatus, 100%; in the series with Pyrenophora teres, 95%; in the series with Cochliobolus miyabeanus, 85%; in the series with Rhizoctonia solani, 100%; in the series on Sphaerotheca fuliginea, 95%. In addition, the Efficacy with Alternaria solani came to 95%; in the series with Pyricularia oryzae it was 85%; in the series with Phakopsora pachyrhizi, 98%; in the series on Septoria tritici, 100%; with Botrytis cinerea, 100%; in the series with Venturia inaequalis, 100%. Also, the logP in series [2] was 4.04.
As to `Cn1nc(C(F)F)c(C(=O)Nc2ccccc2-c2ccc(Br)cc2)c1F` [Example 139], the Efficacy in [1] (500 ppm) turned out to be 93%; with Puccinia triticina, 100%; in the series with Uromyces appendiculatus, 100%; in the series on Pyrenophora teres it was 100%; with Cochliobolus miyabeanus, 95%; with Rhizoctonia solani, 100%. In addition, the Efficacy with Septoria tritici, with Botrytis cinerea and in the series with Venturia inaequalis was 100% each time. The compound also gave a logP in [2] of 3.56.
Consider `Cn1nc(C(F)F)c(C(=O)Nc2ccc(F)cc2-c2ccc(Cl)cc2)c1Cl` [Example 83], for which the Efficacy in the series with Uromyces appendiculatus is 100%; in the series on Sphaerotheca fuliginea, 100%; in the series on Alternaria solani, 94%; in the series on Phakopsora pachyrhizi it was 94%; in the series with Botrytis cinerea, 100%; in the series with Venturia inaequalis, 100%. The compound also returned a lipophilicity (logP) in series [2] of 3.76.
Regarding `Cn1nc(C(F)F)c(C(=O)Nc2ccc(F)cc2-c2ccc(Cl)c(Cl)c2)c1F` [Example 116], the Efficacy with Puccinia triticina stood at 100%; in the series on Uromyces appendiculatus, 100%; in the series on Pyrenophora teres, 100%; in the series with Cochliobolus miyabeanus it was 90%; in the series with Rhizoctonia solani, 97%; with Sphaerotheca fuliginea, 98%. Moreover, the Efficacy in the series with Alternaria solani was 100%; in the series on Pyricularia oryzae, 97% and 90%; in the series with Phakopsora pachyrhizi, 85%; with Septoria tritici it was 100%; with Botrytis cinerea, 100%; in the series with Venturia inaequalis it was 100%. The same compound came in with a logP in [2] of 3.89. Moreover, the protection result in the series with Pyricularia oryzae is recorded as “at least 90%”.
Turning to `CC(C)CCc1ccccc1NC(=O)c1c(C(F)F)nn(C)c1F` [Example 7], the Efficacy with Puccinia triticina came out at 100%; with Pyrenophora teres, 100%; with Cochliobolus miyabeanus, 80%; in the series with Rhizoctonia solani, 100%; in the series with Alternaria solani, 95%; in the series with Pyricularia oryzae, 97%. For the same compound, the Efficacy in the series with Septoria tritici is reported as 88%. Also, the logP in series [2] is listed as 3.60.
Consider `Cn1nc(C(F)F)c(C(=O)Nc2ccc(F)cc2-c2ccc(Cl)c(Cl)c2)c1Cl` [Example 117], for which the Efficacy in the series with Puccinia triticina worked out at 100%; with Uromyces appendiculatus it was 100%; in the series on Pyrenophora teres it was 100%; in the series on Phakopsora pachyrhizi, 98%; in the series with Botrytis cinerea, 99%; in the series with Venturia inaequalis, 100%. This compound also came in with a logP in series [2] of 4.04.
